Test results: paper PMC2673918 (Journal of natural products, 2009)

What was measured:
[1] = system: trypsin; test: trypsin inhibition; type: biochemical; conditions: at concentrations up to 100 µg/mL
[2] = system: chymotrypsin; test: chymotrypsin inhibition; type: biochemical; conditions: at concentrations up to 100 µg/mL

Substance: Anabaenopeptin 908 [Compound 3]
- trypsin inhibition (qualitative) [1]: did not observe trypsin/chymotrypsin inhibition
- chymotrypsin inhibition (qualitative) [2]: did not observe trypsin/chymotrypsin inhibition

Substance: Anabaenopeptin 915 [Compound 4]
- trypsin inhibition (qualitative) [1]: did not observe trypsin/chymotrypsin inhibition
- chymotrypsin inhibition (qualitative) [2]: did not observe trypsin/chymotrypsin inhibition
